The values below are quoted from earlier work in US20150192564A1, “PROFILING REACTIVE OXYGEN, NITROGEN AND HALOGEN SPECIES” (ENZO LIFE SCIENCES, INC., C/O ENZO BIOCHEM, INC, priority 2008, published 2015).

For this data set the following is noted: neutral pH and extremes of pH; cited from earlier work.

For `Nc1ccc2c(c1N)C(=O)c1ccccc1C2=O` [DAQ, 1,2-diaminoanthraquinone], the pH stability result is listed as “stable at neutral pH, as well as at extremes of pH”.
